These results are taken from US20100255099A1, “CLAVULANATE FORMULATION FOR NEUROPROTECTION AND TREATMENT OF NEURODEGENERATIVE DISORDERS” (REXAHN PHARMACEUTICALS, INC., priority 2007, published 2010).

“Also recorded” adds a separate entry of the source. Read-outs that look alike come from different tables or passages of the source.

Series [1] in a line: Stability of clavulanate during moisture removal after wet granulation. It counts as physicochemical. The procedure: Potassium clavulanate is an exceptionally difficult material to formulate, being extremely moisture and heat sensitive. Degradation readily occurs in the presence of water and aqueous media. Several methods were tested to find a suitable condition for removing moisture after wet granulation that keeps the active ingredient clavulanate intact. The material in sample C was prepared by wet granulation and spheronized. The moisture containing spheronized formulation was transferred to trays and subjected to different storage conditions for the removal of moisture.
Lyophilization retained 97% of the active ingredient after 21 hrs of the freeze drying process.

Series [2] deals with TH-positive neurons in the substantia nigra pars compacta (SNpc). In words: Tyrosine hydroxylase immunohistochemistry in MPTP model. The note with it: for TH-positive (TH-IR) neurons within the SNpc: clavulanate treated groups (ip and ga) compared to MPTP-saline group. It counts as in vivo, C57BL/6 mice. The procedure:
The neuroprotectant effects of clavulanate was tested in an MPTP (1-methyl-4-phenyl-1,2,3,6-tetrahydropyridine) induced Parkinson's disease animal model. Eight week old male C57BL/6 mice were separated into six groups of ten. Three times (one time per day) prior to MPTP treatment, ten animals were treated with clavulanate at a particular dose and route of administration (Groups 2-5) while the remaining animals (groups 1 and 6) were given saline vehicle. (See Table 13.) MPTP was given four times intraperitoneally at a dose of 20 mg/kg (total of 80 mg/kg). Two times (one time per day) post MPTP treatment, animals were given another administration of clavulanate or saline vehicle. Animals were tested for changes in behavior. Animals that survived MPTP treatment were sacrificed 7 days later and their brains examined for histological changes in the substantia nigra pars compacta (SNpc). Ten untreated control animals of the same weight and age as the experimental animals were sacrificed and their hippocampal morphology used as a standard for comparison.
(§1) On completion of the experiment, animals were anesthetized by IP injection of 10 mg/kg pentobarbital sodium, then perfused transcardially with 10 ml of PBS at pH 7.4, follow by 50 ml of 4% paraformaldehyde in PBS over a 5 min period. The brains were removed from the skull and post-fixed by immersion in the same fixative solution for 4 h, then transferred to 30% sucrose in PBS. After equilibration in the sucrose solution, coronal sections were cut using the cryocut at a thickness of 40 μm into storing solution and stored at 4° C. prior to staining.
Immunohistochemistry was carried out on free floating sections. All stains were carried out on a 1 in 5 series of sections. All sections were stained simultaneously using the same solutions of antibodies and ensuring that incubation times and washes were the same for each brain. […]
Neurons were counted using the optical fractionator, an unbiased method for cell counting that is not affected by either the volume of reference or the size of the counted elements (neurons). […]

Series [3] concerns Kainate animal model. In words: Kainate animal model: seizure and survival. It counts as in vivo, Sprague Dawley rats. As for the experimental part: (§2) As a neuroprotectant, clavulanate was tested in the Kainate animal model. Thirty male Sprague Dawley rats weighing 300-350 grams were separated into three groups. One hour prior to kainate treatment, seven animals are treated with clavulanate at an IP dose of 10 μg/kg while the remaining animals were given saline vehicle. Kainate was given IP at a dose of 20 mg/kg to the seven clavulanate treated animals and 13 saline vehicle treated animals. […] Sixty minutes post kainate treatment the animals were given another IP injection (10 μg/kg) of clavulanate or saline vehicle. Animals that survived kainate treatment were sacrificed seven days later and their brains examined for histological changes in the hippocampus. Ten untreated control animals of the same weight and age as the experimental animals were sacrificed and their hippocampal morphology used as a standard for comparison.

In series [4] the test system is cresyl violet positive neurons in the hippocampal CA3 region. Nature of the series: Kainate animal model: cresyl violet staining of hippocampus. It counts as in vivo, Sprague Dawley rats. The procedure: as §2
as §1, with “with 100” for “with 10”, “by 250” for “by 50”, “staining. All stains are carried out on a 1 in 5 series of sections. […]” for “staining.”
To evaluate the effects of clavulanate against kainate induced neuronal damage, the measurement of neuronal number was performed using an image analyzing system equipped with a computer-based CCD camera (Multiscan, Fullerton, Calif.). The number of cresyl violet positive neurons was counted in a 1 mm diameter of hippocampus in five sections per animal. […] Data are expressed as the mean±SEM. The data were evaluated by a one-way ANOVA SPSS program and the means assessed using Duncan's multiple-range test. […]

Series [5] can be described thus: Moisture sorption of potassium clavulanate powder at different relative humidity. It is filed as physicochemical. The note with it: for Moisture Content (%) (g H2O/g dry solid) / Moisture Content (%) (g H2O/g wet solid): 96 hr. The procedure: Potassium clavulanate in its solid form is both hygroscopic and unstable in the presence of water vapor. A stability study of clavulanate was conducted with monitoring by chromatographic methods. The static or equilibrium approach was approached by storing samples in chambers at different relative humidity in an attempt to generate a sorption isotherm. The sorption isotherm represents the quantitative relationship between the equilibrium moisture content and relative humidity (RH) in the atmosphere.

Series [6] can be described thus: Pharmacokinetic study in beagle dogs. It is filed as in vivo. The note with it: dog, plasma; for Vd: iv, 4.2 mg. As for the experimental part:
The amount of clavulanate in the plasma of beagle dogs was measured by LC/MS/MS method. The chromatographic separation of the analytes was performed on a reverse-phase PLRP-S polymeric column. The retention time of potassium clavulanate and tazobactam (reference compound) were 8.51 and 8.54 min, respectively. The overall chromatographic run time was 25 min. The M/S analysis was performed on an Applied Biosystems' API 2000 triple-quardrupole mass spectrometer by multiple reaction monitoring in negative electrospray ionization mode. The mass spectral data were analyzed by Analyst 1.4.1 (Applied Biosystems). The pharmacokinetic analysis was conducted by using PK Solutions 2.0 (Summit Research Services).
Three male Beagle dogs were used throughout the study in a cross-over design with washout period between treatments. […] The animals were fasted overnight before the administration of the test substance and fed 4 hr post-dosing. During all the treatments, blood samples (1.5 ml) were withdrawn from the cephalic vein by venipuncture into heparinized tubes at 0, 5, 15, 30 min, 1, 1.5, 2, 2.5, 3, 4, 6, 9 and 12 hr after dosing. Plasma was obtained via centrifugation at 3,000 rpm for 10 min and analyzed by an LC-MS/MS system.
Three male beagle dogs were used throughout the study in a cross-over design with washout period between treatments. The dogs were given the test substances as aqueous solution via intravenous routes with no shorter than 24 hr washout period between dosing. The animals were fasted overnight before the administration of the test substance and fed 4 hr post-dosing. During all the treatments, blood samples (1.5 ml) were withdrawn from the cephalic vein by venipuncture into heparinized tubes at 0, 5, 15, 30 min, 1, 1.5, 2, 2.5, 3, 4, 6, 9 and 12 hr after dosing. Plasma was obtained via centrifugation at 3,000 rpm for 10 min and analyzed by an LC-MS/MS system.
Four male beagle dogs were used throughout the study in a cross-over design with washout period between treatments. The dogs were given the test substances as ER tablet of Example 3C via oral routes with no shorter than 24 hr washout period between dosing. The animals were fasted overnight before the administration of the test substance and fed 4 hr post-dosing. During all the treatments, blood samples (1.5 ml) were withdrawn from the cephalic vein by venipuncture into heparinized tubes at 1, 2, 3, 4, 5, 6, 7, 8, 9, 10, 11 and 12 hr after dosing. Plasma was obtained via centrifugation at 3,000 rpm for 10 min and analyzed by an LC-MS/MS system.

The mark [7] stands for this setting: compared to controls given saline only.
The mark [8] stands for this setting: IV aqueous solution, dose 4.2 mg, male beagle dogs.

As usually defined, the AUC(0-t) is exposure summed from dosing to a finite time, without extrapolation to infinity. Low readings indicate less exposure, high ones more exposure. In general, MRT inf refers to the average time that molecules of a dose stay in the body. Usually clearance stands for the rate of elimination divided by the concentration. A high value points to efficient removal. One may read the bioavailability as the share of a dose that reaches the circulation, judged against a reference dose that is usually intravenous.

As to `O=C(O)[C@H]1/C(=C/CO)O[C@@H]2CC(=O)N21` [clavulanate], in series [1] (Freeze dry: sub-zero, 21 hr), the “Clavulanate (%)” value stood at 97%. The degradation in series [1] (drying in a fluid bed system, 1.5 hr) worked out at 13%. For the same compound, the “TH-positive (TH-IR) neurons within the SNpc” value in series [2] is reported as “significantly protected; also recorded: preservation”. For the same compound, in series [2] (listed as Clavulanate), the “TH-positive (TH-IR) neurons within the SNpc” value is “well preserved”. Also, the “protection of TH-positive SNpc neurons, gavage versus ip” value in series [2] (following gavage treatment) is “greater protection”. For the same compound, in series [3] (setting [7]), the onset to seizure result was “longer onset to seizure” and the seizure activity result was “mild seizure activity”. For the same compound, the “Survival rate (%)” value in series [3] (kainate 20 mg/kg IP, clavulanate 10 μg/kg IP 1 hr before and 60 min after kainate) is on record as 100%. In series [3] (seizure rating scale (Sperk et al., 1983), 60-120 min after kainate treatment), the Seizure rate is reported as 0-1. For the same compound, the fatality result in series [3] (within 24 hrs of kainate treatment) is on record as “no fatality”. In addition, in series [4] (CA3 stratum pyramidale, 7 days after kainate, compared to the normal group), the “pyramidal neurons positive to cresyl violet” value was found to be 88.7%. In addition, in series [4] (compared to animals treated with kainate-saline), the “morphology of neurons in CA3” value is given as “normal morphology”. Further, the “neuroprotective effect on kainate induced hippocampal cell death (CA3 region)” value in series [4] (kainate treated rats) was “strong neuroprotective effect; also recorded: significant neuroprotective effect”.

Turning to `O=C(O)[C@H]1/C(=C/CO)O[C@@H]2CC(=O)N21` [potassium clavulanate], the “humidity above which deliquescence would eventually occur” value in series [5] was “above 40 % relative humidity”. The “Moisture Content (%) (g H2O/g dry solid)” value in series [5] (33% RH) is listed as 0.713%; in series [5] (35% RH), 0.737%; in series [5] (37% RH), 0.848%; in series [5] (39% RH) it was 1.280%; in series [5] (41% RH), 1.566%; in series [5] (43% RH), 4.140%. In addition, the “Moisture Content (%) (g H2O/g dry solid)” value in series [5] (45% RH) is reported as 5.018%; in series [5] (47% RH), 14.708%. Moreover, the “Moisture Content (%) (g H2O/g wet solid)” value in series [5] (33% RH) is on record as 0.708%; in series [5] (35% RH), 0.733%; in series [5] (37% RH), 0.842%; in series [5] (39% RH) it was 1.264%; in series [5] (41% RH), 1.542%; in series [5] (43% RH), 3.976%. In addition, the “Moisture Content (%) (g H2O/g wet solid)” value in series [5] (45% RH) is recorded as 4.778%; in series [5] (47% RH), 12.823%. Besides, the “rate of moisture absorption” value in series [5] (dry potassium clavulanate exposed to about 50% relative humidity) is on record as “approximately 1.44 % per hour”. Moreover, the “moisture content on a dry weight basis” value in series [5] (exposed to about 35% or less of relative humidity for 96 hr) is recorded as less than 1%. For the same compound, the degradation entry in series [1] (storage at 30° C. for 69 hr (storage 1)) was “up to 45%”; in series [1] (storage at 45° C. for 75 hr (storage 2)), not above 60%. In addition, the AUC(0-t) in series [6] (setting [8]) is 684 ng·h/mL. This compound returned an MRT inf in series [6] (setting [8]) of 39 min. The clearance in series [6] (setting [8]) was 96.7 mL/min. In addition, the bioavailability was 100% in series [6] (IV aqueous solution, dose 4.2 mg, male beagle dogs, read-out: F (bioavailability)) and 30 to 41% in series [6] (male, beagle, po, given orally, fasted animals, read-out: average bioavailability). Besides, the half-life in series [6] (IV aqueous solution, dose 4.2 mg, male beagle dogs, read-out: t1/2 (converted)) was 31.2 min; in series [6] (male, beagle dogs, read-out: apparent terminal half-life (converted)), 30 min. Besides, the Vd in series [6] (male, beagle, IV aqueous solution, dose 4.2 mg, male beagle dogs, read-out: Vd) is 4.4 L; in series [6] (male, beagle, IV aqueous solution, dose 4.2 mg, male beagle dogs, read-out: Vss) it was 3.8 L.
